# Columns and labels:
# Assay in all cases: relative viability (nuclei count vs DMSO), 5 days (fraction); higher = more cells survive
# [1] = compound: CS(=O)(=O)c1ccc(-c2cnc(N)c(C(=O)Nc3ccccc3)n2)cc1 [VE-821] + COc1cc2c(Oc3ccc(NC(=O)C4(C(=O)Nc5ccc(F)cc5)CC4)cc3F)ccnc2cc1OCCCN1CCOCC1 [Foretinib] (partner 0.25 µM)
# In short: (§1)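 Each reported value is a median over duplicate plates. It expresses relative viability: treated-well nuclei count divided by vehicle-well nuclei count. Lung cancer cell lines in 1536-well plates were dosed by pin tool a day after seeding, alone with one drug or with a fixed anchor-drug dose plus five library-drug doses (not always all listed) in √10 steps, and nuclei were counted after 5 days.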
# [2] = compound: CS(=O)(=O)c1ccc(C(=O)Nc2ccc(Cl)c(-c3ccccn3)c2)c(Cl)c1 [Vismodegib] + COc1cc2c(Oc3ccc(NC(=O)C4(C(=O)Nc5ccc(F)cc5)CC4)cc3F)ccnc2cc1OCCCN1CCOCC1 [Foretinib] (partner 0.25 µM)
# In short: as §1
# [3] = compound: N#CC[C@H](C1CCCC1)n1cc(-c2ncnc3[nH]ccc23)cn1 [Ruxolitinib] + CC(C)C[C@H](NC(=O)[C@H](Cc1ccccc1)NC(=O)c1cnccn1)B(O)O [Bortezomib] (partner 0.002 µM)
# In short: as §1
# [4] = compound: N#CC[C@H](C1CCCC1)n1cc(-c2ncnc3[nH]ccc23)cn1 [Ruxolitinib] + CCNC(=O)c1noc(-c2cc(C(C)C)c(O)cc2O)c1-c1ccc(CN2CCOCC2)cc1 [Luminespib] (partner 0.01 µM)
# In short: as §1
Cell Line,relative viability ([1]; first compound 0.08 µM),relative viability ([1]; first compound 0.253 µM),relative viability ([1]; first compound 0.8 µM),relative viability ([1]; first compound 2.53 µM),relative viability ([1]; first compound 8 µM),relative viability ([2]; first compound 0.08 µM),relative viability ([2]; first compound 0.253 µM),relative viability ([2]; first compound 0.8 µM),relative viability ([2]; first compound 2.53 µM),relative viability ([2]; first compound 8 µM),relative viability ([3]; first compound 0.08 µM),relative viability ([3]; first compound 0.253 µM),relative viability ([3]; first compound 0.8 µM),relative viability ([3]; first compound 8 µM),relative viability ([4]; first compound 0.08 µM),relative viability ([4]; first compound 0.253 µM),relative viability ([4]; first compound 0.8 µM),relative viability ([4]; first compound 2.53 µM),relative viability ([4]; first compound 8 µM),relative viability ([3]; first compound 2.53 µM)
NCI-H596,0.867,0.617,0.928,0.905,0.607,0.826,0.83,0.463,0.964,1,0.964,1.17,1.21,0.994,1.03,0.889,1.4,1.17,1,
201T,1.09,1.17,0.784,0.968,0.6,1.17,1.04,0.951,1.08,1.08,1.14,1.26,1.21,1.3,1.1,1.22,1.24,1.17,1.18,1.34
HOP-62,1.14,1.04,1.07,1.22,1.09,1.1,1.03,1.1,1.07,1.1,,0.719,1.15,0.763,0.879,0.946,0.934,0.927,0.686,0.856
NCI-H1975,0.977,0.89,,0.82,0.709,0.993,0.996,0.933,0.832,0.964,0.415,0.382,0.482,0.316,0.172,0.191,0.241,0.232,0.153,0.303
NCI-H1755,0.956,0.855,0.845,0.92,0.765,0.894,0.91,0.947,0.96,0.913,0.984,1.04,1.03,0.658,0.452,0.45,0.699,0.351,0.362,0.853
ChaGo-K-1,0.988,0.971,0.814,1,0.734,1.03,0.918,0.92,0.838,0.886,,0.929,0.94,0.701,0.635,0.655,0.605,0.492,0.517,0.976
NCI-H2023,0.998,0.785,0.511,0.383,0.343,0.974,0.804,0.881,0.834,0.999,1.13,0.928,1.43,1.01,0.73,0.74,0.674,0.438,0.568,0.844
EKVX,0.801,0.673,0.574,0.874,0.582,0.744,0.702,1.05,0.724,0.737,0.785,0.994,0.986,0.929,0.85,0.877,0.975,0.816,0.804,0.989
LCLC-97TM1,1.12,1.05,0.878,0.98,0.885,0.953,0.934,0.869,0.97,0.912,0.407,0.69,0.635,0.526,0.617,0.657,0.78,0.626,0.904,0.906
NCI-H2085,1.05,0.915,0.863,1.01,0.812,0.86,0.96,0.989,0.755,0.796,0.964,1.06,1.26,0.822,0.418,0.48,0.486,0.403,0.352,0.904
BEN,0.685,0.574,0.623,0.581,0.76,0.871,0.799,0.606,0.642,0.644,0.634,0.693,0.824,1.16,0.339,0.64,0.519,0.377,0.33,0.747
HARA,1.06,0.888,0.798,0.812,0.574,0.977,0.992,0.41,0.805,1.03,1.29,1.06,1.11,1.09,0.9,0.83,0.897,0.839,0.342,0.534
PC-14,1.1,0.913,0.974,1.02,0.984,0.91,0.948,0.984,0.998,0.963,,0.969,0.875,0.603,,0.181,0.175,0.171,0.169,0.789
SW 1573,0.96,0.853,0.861,0.815,0.87,0.994,0.908,0.907,0.895,1.01,0.981,1.04,1.01,0.896,0.228,0.214,0.184,0.241,0.21,0.939
NCI-H1563,0.937,0.903,0.769,0.876,0.83,0.895,1.02,0.922,0.936,1.02,0.992,0.867,0.97,0.788,0.535,0.515,0.549,0.505,0.505,0.833
NCI-H1355,1.04,0.942,0.768,1.01,0.729,0.92,0.988,0.904,0.997,0.987,1.25,1.13,1.14,1.22,0.751,0.721,0.772,0.616,0.687,1.11
NCI-H460,1.02,0.979,0.841,0.919,0.17,0.948,0.951,1.04,0.975,1.08,1.06,1.11,1.29,0.86,0.0343,0.0362,0.0405,0.0294,0.027,1.01

Cell Line,relative viability ([1]; first compound 0.08 µM),relative viability ([1]; first compound 0.253 µM),relative viability ([1]; first compound 0.8 µM),relative viability ([1]; first compound 2.53 µM),relative viability ([1]; first compound 8 µM),relative viability ([2]; first compound 0.08 µM),relative viability ([2]; first compound 0.253 µM),relative viability ([2]; first compound 0.8 µM),relative viability ([2]; first compound 2.53 µM),relative viability ([2]; first compound 8 µM),relative viability ([3]; first compound 0.08 µM),relative viability ([3]; first compound 0.253 µM),relative viability ([3]; first compound 0.8 µM),relative viability ([3]; first compound 8 µM),relative viability ([4]; first compound 0.08 µM),relative viability ([4]; first compound 0.253 µM),relative viability ([4]; first compound 0.8 µM),relative viability ([4]; first compound 2.53 µM),relative viability ([4]; first compound 8 µM),relative viability ([3]; first compound 2.53 µM)
NCI-H2126,1.38,1.1,1.21,1.1,0.764,1.19,1.13,,1.09,1.15,1.12,1.21,1.24,1.18,0.879,0.922,1.13,0.933,0.784,1.15
LCLC-103H,0.926,0.876,0.82,0.914,0.572,0.747,0.758,0.73,0.756,0.776,0.922,1.17,1.04,0.951,0.851,0.862,0.959,1.04,0.956,1.15
COR-L 105,1.06,1.15,0.937,0.731,0.759,1.23,0.829,1.17,0.82,0.994,0.925,0.949,0.826,0.647,0.707,0.93,0.789,0.538,0.511,0.536
H3255,0.883,0.843,0.913,0.91,0.857,0.865,0.866,0.822,0.888,0.878,,0.595,0.836,0.598,0.85,0.881,1.07,0.841,0.865,0.6
NCI-H441,1.36,1.04,1.19,1.04,0.928,1.24,1.04,0.931,0.774,1.01,0.545,0.448,0.557,0.397,0.299,0.424,0.319,0.472,0.317,0.456
NCI-H2347,0.542,0.995,0.633,1.03,0.946,1.12,0.599,,0.834,0.978,,0.907,0.931,1.2,0.519,0.456,0.41,0.302,0.676,0.917
CAL-12T,1.27,1.09,1.01,0.976,0.92,1.08,1.06,1.05,1.06,1.16,,0.856,1.1,0.535,0.364,0.771,0.448,0.305,0.335,0.979
HCC-827,1.13,0.956,1.02,1.05,0.827,0.995,1.03,0.972,1.01,0.866,1.05,0.993,1.01,0.798,,0.578,0.679,0.519,0.562,0.881
NCI-H520,0.853,0.727,0.454,1.45,0.762,0.839,0.678,0.697,0.709,0.682,,0.323,0.859,0.364,0.211,0.209,0.236,0.215,0.241,0.323
A-427,1.34,0.97,0.991,1.05,0.561,1,1.01,1.08,1.11,1.11,0.983,0.955,0.985,0.782,,0.969,1,0.715,0.813,1.06
NCI-H650,1.04,1.05,1.08,1.04,1.07,0.792,0.999,0.988,1.03,0.951,,0.777,0.812,0.478,,0.844,0.843,0.804,0.658,0.888
NCI-H727,1.27,0.982,0.823,0.789,0.405,0.973,0.867,0.896,0.761,0.792,0.997,0.845,1.14,1.07,0.3,0.357,0.655,0.35,0.2,0.941
ABC-1,1.41,0.877,0.859,1.01,0.756,0.894,1.15,1.14,1.08,1.23,0.324,0.303,0.325,0.285,,0.736,0.987,0.509,0.437,0.284
NCI-H23,1.19,1.13,0.889,0.688,0.39,0.925,0.899,1.01,0.593,1.2,1.12,1.02,1.34,0.731,0.195,0.209,0.242,0.214,0.191,0.89
SK-LU-1,0.871,0.775,0.738,0.59,0.254,0.76,0.821,0.875,0.753,0.818,0.465,1.07,1.3,0.936,0.185,0.204,0.255,0.182,0.207,1.03
LOU-NH91,0.982,0.946,0.86,0.986,0.928,0.943,0.925,0.905,0.867,0.912,0.52,0.463,0.492,0.534,,0.361,0.35,0.316,0.382,0.47

# — the supplement of paper PMC10307832
